# Laboratory results reported in patent publication US20260152777A1, “METHOD FOR PRODUCING EPIGALLOCATECHIN GALLATE MONOGLUCOSIDE” (GIVAUDAN SA, priority 2022, published 2026).
# Tests used:
# Format in all cases: in vivo, human
# [1] = test system: Asian volunteers with dull skin and large senescence spots; assay: Clinical study: ultrasound measurement of dermis density using DUB SkinScanner; details: for Dermis density Mean +/− SD / Dermis density change vs D 0: cream with 2% ascorbic acid, hemiface, Asian women
# Excerpt: (§1) For this study, volunteers applied the cream twice a day for 56 days.
# (§2) GLYCOL, DIMETHICONE, FRAGRANCE
# (§3) Volunteers were divided into two groups as follows: • Group 1: 20 Asian women testing the active cream in comparison to the placebo cream with an average age of 54±5 years. • Group 2: 18 Asian women testing the vitamin C cream in comparison to the placebo cream with an average age of 53±8 years.
# (§4) Volunteers applied a cream containing 0.4% of active, 2% of ascorbic acid (vitamin C), respectively, on one hemiface and a placebo cream on the other hemiface […] for 56 days.
# (§5) During this study, a skin color and spots analysis was conducted using Colorface®, biomechanical properties were tested using Cutometery®, and the dermis thickness was determined using a DUB SkinScanner 75® probe (max. depth of 3.28 mm).
# The DUB Skin Scanner system is a high-frequency, high-resolution ultrasound diagnostic tool for use in dermatology, cosmetics and pharmaceuticals and clinical research. 75 MHz ultrasound is a popular method for non-invasive skin analysis. High frequency ultrasound (75 MHz) can explore the superficial layers of the skin and can penetrate up to 3 mm into the skin. Skin ultrasound is based on the population of ultrasound in the skin and on the direction and measurement of the amplitudes of the part reflected by the interfaces separating two media having different characteristics of acoustic waves. An ultrasound imaging technique used for the visualization of the structure of the subcutaneous body allows the evaluation of the homogeneity of the skin, including the density and the skin thickness.
# Three measurements of thickness and density were taken to obtain an average for each image.
# For this study, the analysis of the density of the dermis was carried out on D0, D28 and D56.
# [2] = test system: female Caucasian volunteers presenting brown spots on their hands; assay: Clinical study: age-spot removal by Raman spectroscopy (skin background fluorescence, melanin detection); details: for Melanin detection Mean +/− SD / Melanin detection TBX − TB0: hands, twice daily, Caucasian women
# Procedure: A double blind and placebo controlled clinical evaluation was carried out on 45 female Caucasian volunteers aged from 45 to 75 years. The volunteers were presenting brown spots on their hands. All the subjects participating in the study gave their informed consent at the beginning of the study. […] At D0 and D56, the anti-spot efficacy was analyzed by Raman spectroscopy. The compositions described in Example 12 were used. The set-up included a confocal Raman probe coupled to a dispersive Raman spectrograph. The excitation laser beam was sent to the remote probe via a 5 μm core-diameter fiber and the Raman signal was conveyed to the spectrograph via a 100 μm core-diameter fiber. The probe was equipped with a 100× long working distance objective operating in air. A piezo-electric device allowed to collect Z Raman profiles by assuring axial measurements from the surface down to a defined depth in the skin. A color video camera integrated in the probe permitted to visualize the skin surface. This camera is also useful to control the focalization of the laser on the skin. The spectrograph was equipped with a CCD (Coupled Charge Detector) of 1024×256 elements cooled by Peltier effect, and an 830 grooves/mm grating, which allows to cover a large spectral range from 550 to 3700 cm^−1 in a single shot acquisition, with a spectral resolution of about 6 cm^−1. The excitation source was a 660 nm laser diode and the power at the sample was set to 30 mW in accordance with protection standards for radiation. For protection against laser radiation, protective glasses were used. The 660 nm excitation was chosen as the optimal compromise between generation of parasitic fluorescence and sensitivity of the CCD camera over the whole spectral range. For skin characterization, the measurement of high wavenumber vibrations is important to access information on water content. For data acquisition, the device was controlled by the Labspec 5 software. The Z profiles consist of an in-depth scanning through the skin. Raman spectra were collected at different focus points, from skin surface Z=0 μm to 30 μm (under the skin surface) with 3 μm steps. The measurement depths are indicated in the following table with the corresponding acquisition times, leading to a time of 1 min for a complete profile. In total, 519 Raman profiles were recorded: 2 profiles per condition and for each area (unstained area and brown spot area). Each profile comprises 14 spectra, resulting in recorded 7266 spectra. These measurements were used for the evaluation of the spectroscopic marker of skin background fluorescence. This marker is associated with the degree of skin lightening: A decrease in this marker indicates a positive skin lightening effect, whereas a stability or an increase in this marker means that the product has no lightening effect on the skin. The pre-processing of spectral data was performed using Matlab 7.2 (The MathWorks Inc., USA). Aberrant profiles (bad S/N (signal/noise) ratio, fluorescence, incomplete profile with a large zero offset, saturation . . . ) were excluded from the data base. Each non-aberrant profile was submitted to background corrections, which allowed to clean up the Raman signal of the skin. These background corrections included smoothing spectra with a 9-mm Savitzky-Golay filter, spikes correction, […] the normalization on the intensity of the entire wavenumber range with a vectorial function. A baseline correction was not done in order to preserve the skin background fluorescence, which allows for the extraction of the skin fluorescence markers associated with the degree of skin lightening. After these pre-processing steps, corrected data were used to determine the spectra corresponding to the Stratum corneum surface. […] The skin properties were evaluated using Raman spectroscopy after 28 and 56 days of twice daily application.
# [3] = test system: Asian volunteers with dull skin and large senescence spots; assay: Clinical study: skin biomechanical properties by Cutometer (R0, firmness); details: for Firmness effect (R0) Mean +/− SD / Firmness effect (R0) Average variation (%) vs D 0: hemiface
# Excerpt: as §1, §2, §3, §4, §5
# The analysis of the mechanical properties of the skin enables to assess the functional state of the following tissue structures: • The elastic structures, such as elastic fibers, curvature of the connective bundles, wrinkles of the stratum corneum; and • the viscous-behaving structures, such as interstitial fluids, internal adherences.
# The study was performed using a Cutometer® MPA 580 (Courage & Khazaka). The measuring principle is based on the suction method: Negative pressure is created in the device and the skin is drawn into a cylindrical aperture (2 mm in diameter) of the probe. Inside the probe, the penetration depth is determined by an optical measuring system. Each suction phase is followed by a relaxing phase.
# In the present study, the following program was used: • Length of the cycle: 4 seconds • Suction: 2 seconds • Relaxation: 2 seconds • Negative pressure: 450 millibars • Diameter of the chamber: 2 mm • Area measured: crow's feet
# From these curves, the parameters can be calculated. • During the suction phase, the deformation of the skin by the negative pressure measures first the elastic resistance and then the viscous component, which taken together represent skin firmness. • During the relaxation phase, the immediate recovery of the skin measures sheer cutaneous elasticity, whereas the delayed return of the skin to its initial position measures the viscoelastic component.
# This study focused on the R0 or Uf parameter, which represents the amplitude of the skin during the suction phase. At equal pressure, the more flexible the skin, the greater the amplitude. Thus R0 (or UF) will evaluate the viscoelastic dispensability, or in other words, the firmness of the skin.
# These parameters were measured on D0, D28, D56.
# [4] = cream with 2% ascorbic acid, Asian women, D 28
# [5] = cream with 2% ascorbic acid, Asian women, D 56
structure (smiles),measurement,setting,value
"O=C1O[C@H]([C@@H](O)CO)C(O)=C1O [Ascorbic acid, ascorbic acid]",Dermis density Mean +/− SD,[1]; D 0 (baseline),37.7 ± 8.1 arbitrary unit
same,Dermis density Mean +/− SD,[1]; D 28,39.1 ± 8.3 arbitrary unit
same,Dermis density change vs D 0,[1]; D 28,+3.8%
same,Dermis density Mean +/− SD,[1]; D 56,40.7 ± 9.2 arbitrary unit
same,Dermis density change vs D 0,[1]; D 56,+7.2%
same,Melanin detection Mean +/− SD,"[2]; ascorbic acid at 2%, D 0 (baseline)",49.80 ± 13.13 arbitrary unit
same,Melanin detection Mean +/− SD,"[2]; ascorbic acid at 2%, D 28",52.05 ± 11.23 arbitrary unit
same,Melanin detection TBX − TB0,"[2]; ascorbic acid at 2%, D 28",+2.25 a.u
same,Melanin detection Mean +/− SD,"[2]; ascorbic acid at 2%, D 56",32.28 ± 10.43 arbitrary unit
same,Melanin detection TBX − TB0,"[2]; ascorbic acid at 2%, D 56",−17.52 a.u
same,Firmness effect (R0) Mean +/− SD,"[3]; cream with 2% ascorbic acid, Asian women, D 0 (baseline)",0.283 ± 0.036 arbitrary unit
same,Firmness effect (R0) Average variation (%) vs D 0,[3]; [4],−6.9%
same,Firmness effect (R0) Mean +/− SD,[3]; [4],0.263 ± 0.032 arbitrary unit
same,Firmness effect (R0) Average variation (%) vs D 0,[3]; [5],−6.5%
same,Firmness effect (R0) Mean +/− SD,[3]; [5],0.264 ± 0.046 arbitrary unit
O=C(O[C@@H]1Cc2c(O)cc(O)cc2O[C@@H]1c1cc(O)c(O[C@H]2O[C@H](CO)[C@@H](O)[C@H](O)[C@H]2O)c(O)c1)c1cc(O)c(O)c(O)c1 [epigallocatechin gallate 4′-O-α-monoglucoside],increase of the dermis density,"[1]; summary statement, clinical evaluation on Asian volunteers",up to 16.6%
same,reduction of skin heterogeneity,[2]; Caucasian volunteers having pigmented spots on their hands,up to −24%
same,Melanin detection TBX − TB0,"[2]; product with 0.4% purified preparation, D 28",−10.2 a.u
same,Melanin detection TBX − TB0,"[2]; product with 0.4% purified preparation, D 56",−20.4 a.u
same,improvement of skin firmness relative to the placebo cream,"[3]; active cream 0.4%, Asian women",up to 21 fold
same,Firmness effect (R0) Average variation (%) vs D 0,"[3]; active cream 0.4%, Asian women, D 28",~8.7%
same,Firmness effect (R0) Average variation (%) vs D 0,"[3]; active cream 0.4%, Asian women, D 56",−8.2%
same,"improvement of skin firmness, times better than placebo",[3]; after 56 days,up to 21 times
